# Source: US20030109581A1, “Chemical attractants for yellowjacket wasps” (priority 2001, published 2003)
# Legend:
# [1] = system: Vespula maculifrons (eastern yellowjacket); assay: Field trap captures, BARC-W, 7 days in September (FIG. 1); format: in vivo
# Description: (§1) Field tests were carried out using lures prepared as described in Example 1. Traps baited with various prepared lures, in addition to unbaited control traps, were hung from trees or fences at three locations: Beltsville Agricultural Research Center-West (BARC-W), Beltsville, Md.; University of Maryland Apiary; and a private residence, Silver Spring, Md., with apple trees on the property. Most tests were conducted late in the season when populations of yellowjackets were greatest. After exposure in the field for varying periods of time, traps were brought to the laboratory for sorting and counting insects by species.
# In initial experiments, the equivalence of H vs. A was tested along with the synergism between IB/AA and H/T/B or A/T/B blends. […] The use of acetal (A) is considered more desirable than hexenal (H) for this type of lure because of its lower volatility and greater stability.
# Polyvinyl chloride (PVC) plugs containing an about 16% load of volatiles were prepared. For purposes of example, lures containing (E)-2-hexenal diethyl acetal, A (Bedoukian, Inc., Danbury, Conn.) and linalool, L (Aldrich Chemicals, Milwaukee, Wis.) are described.
# PVC resin (200 g) was mixed thoroughly with 60 ml dioctyl phthalate, a blend of 30 ml of A with 20 ml of L was poured into the plasticized PVC and mixed. […]
# Vespula maculifrons = assay: Field trap captures, BARC-W, 9 days in September/October; format: in vivo
# Description: as §1
# The equivalence of T vs. L was tested along with the effect of B and the possible synergism of HB. Six chemical treatments in replicates of three were tested over a period of 9 days in September/October at BARC-W: IB/AA; HB+A/T/B; IB/AA+A/T;
# The test also corroborates earlier results indicating localized distribution of yellowjacket species since no V. squamosa were captured and only one individual of V. germanica was caught. The synergistic effect between IB/AA and the novel blends was also confirmed.
# Polyvinyl chloride (PVC) plugs containing an about 16% load of volatiles were prepared. For purposes of example, lures containing (E)-2-hexenal diethyl acetal, A (Bedoukian, Inc., Danbury, Conn.) and linalool, L (Aldrich Chemicals, Milwaukee, Wis.) are described. […]
compound,measurement,setting,value
"CCC/C=C/C(OCC)OCC [A, (E)-2-hexenal diethyl acetal]",equivalence of H vs. A,[1],can effectively replace H in this system
"OCc1ccccc1 [B, benzyl alcohol]",effect of B on lure activity,Vespula maculifrons,is not essential for lure activity
"C=CC(C)(O)CCC=C(C)C (stereo not drawn) [L, linalool]",equivalence of T vs. L,Vespula maculifrons,effectively substitutes for T
